Results from ChEMBL document CHEMBL5131408, “Novel O-acylated amidoximes and substituted 1,2,4-oxadiazoles synthesised from (+)-ketopinic acid possessing potent virus-inhibiting activity against phylogenetically distinct influenza A viruses” (Bioorg Med Chem Lett, 2022).
pIC50: −log10 of the molar value.

Test system: not listed separately
Assay: Cytotoxicity against MDCK cells infected with Influenza A virus A/Anhui/1/2013 (H7N9) assessed as reduction in cell viability
Format: toxicity, cell-based, Canis lupus familiaris
Settings: dog

Structure (SMILES) | CC50 [µM]
CC1(C)[C@@H]2CC[C@@]1(C(=O)O/N=C(\N)c1ccccn1)C(=O)C2 | 688
CC1(C)[C@@H]2CC[C@@]1(C(=O)O/N=C(\N)c1ccc(Br)cc1)C(=O)C2 | 354
CC1(C)[C@@H]2CC[C@@]1(c1nc(Cc3cccc(F)c3)no1)C(=O)C2 | 344
CC1(C)[C@@H]2CC[C@@]1(c1nc(-c3ccc(F)cc3)no1)C(=O)C2 | 203
CC1(C)[C@@H]2CC[C@@]1(c1nc(Cc3ccc(Br)cc3)no1)C(=O)C2 | > 800
CC1(C)[C@@H]2CC[C@@]1(C(=O)O/N=C(\N)c1cccnc1)C(=O)C2 | 831
CC1(C)[C@@H]2CC[C@@]1(C(=O)O/N=C(\N)c1ccc(F)cc1)C(=O)C2 | 94
CC1(C)[C@@H]2CC[C@@]1(c1nc(-c3ccncc3)no1)C(=O)C2 | 1110
CC1(C)[C@@H]2CC[C@@]1(c1nc(-c3cccc(F)c3)no1)C(=O)C2 | > 1000
CC1(C)[C@@H]2CC[C@@]1(C(=O)O/N=C(\N)c1cccc(F)c1)C(=O)C2 | 79
CC1(C)[C@@H]2CC[C@@]1(c1nc(-c3cccnc3)no1)C(=O)C2 | 1060
CC1(C)[C@@H]2CC[C@@]1(c1nc(Cc3ccc(Cl)cc3)no1)C(=O)C2 | > 906
CCC(CC)O[C@@H]1C=C(C(=O)O)C[C@H](N)[C@H]1NC(C)=O [OSELTAMIVIR CARBOXYLATE] | > 100
CC1(C)[C@@H]2CC[C@@]1(C(=O)O/N=C(\N)c1ccc(Cl)cc1)C(=O)C2 | 75
CC1(C)[C@@H]2CC[C@@]1(c1nc(-c3ccccc3)no1)C(=O)C2 | 199

Test system: not listed separately
Assay: Cytotoxicity against MDCK cells infected with Influenza A virus A/Puerto Rico/8/34 (H1N1) assessed as reduction in cell viability
Format: toxicity, cell-based, Canis lupus familiaris
Settings: dog

Structure (SMILES) | CC50 [µM]
CC1(C)[C@@H]2CC[C@@]1(C(=O)O/N=C(\N)c1ccccn1)C(=O)C2 | 751
CC1(C)[C@@H]2CC[C@@]1(c1nc(-c3ccc(Cl)cc3)no1)C(=O)C2 | 52
CN(C)C/C(N)=N/OC(=O)[C@]12CC[C@H](CC1=O)C2(C)C | 433
CC1(C)[C@@H]2CC[C@@]1(C(=O)O/N=C(\N)c1ccc(Br)cc1)C(=O)C2 | 387
CC(C)/C(N)=N/OC(=O)[C@]12CC[C@H](CC1=O)C2(C)C | 730
CC1(C)[C@@H]2CC[C@@]1(c1nc(Cc3cccc(F)c3)no1)C(=O)C2 | 411
CC1(C)[C@@H]2CC[C@@]1(C(=O)O/N=C(\N)c1ccncc1)C(=O)C2 | 846
CC/C(N)=N/OC(=O)[C@]12CC[C@H](CC1=O)C2(C)C | 807
CC1(C)[C@@H]2CC[C@@]1(c1nc(-c3ccc(F)cc3)no1)C(=O)C2 | 270
CC1(C)[C@@H]2CC[C@@]1(c1nc(-c3ccccn3)no1)C(=O)C2 | > 1000
CC1(C)[C@@H]2CC[C@@]1(c1nc(Cc3ccc(Br)cc3)no1)C(=O)C2 | > 792
CC1(C)[C@@H]2CC[C@@]1(C(=O)O/N=C(\N)c1cccnc1)C(=O)C2 | > 997
CC1(C)[C@@H]2CC[C@@]1(C(=O)O/N=C(\N)c1ccc(F)cc1)C(=O)C2 | 236
CC1(C)[C@@H]2CC[C@@]1(c1nc(-c3ccncc3)no1)C(=O)C2 | 1000
CC1(C)[C@@H]2CC[C@@]1(c1nc(-c3cccc(F)c3)no1)C(=O)C2 | > 1280
CC1(C)[C@@H]2CC[C@@]1(C(=O)O/N=C(\N)c1cccc(F)c1)C(=O)C2 | 155
CC1(C)[C@@H]2CC[C@@]1(c1nc(-c3cccnc3)no1)C(=O)C2 | > 1060
CC1(C)[C@@H]2CC[C@@]1(c1nc(Cc3ccc(Cl)cc3)no1)C(=O)C2 | > 906
CCC(CC)O[C@@H]1C=C(C(=O)O)C[C@H](N)[C@H]1NC(C)=O [OSELTAMIVIR CARBOXYLATE] | > 100
CC1(C)[C@@H]2CC[C@@]1(C(=O)O/N=C(\N)c1ccc(Cl)cc1)C(=O)C2 | 239
CC1(C)[C@@H]2CC[C@@]1(c1nc(-c3ccccc3)no1)C(=O)C2 | 198

Test system: not listed separately
Assay: Selectivity index, ratio of CC50 for cytotoxicity against MDCK cells infected with Influenza A virus A/Puerto Rico/8/34 (H1N1) to IC50 for antiviral activity against Influenza A virus A/Puerto Rico/8/34 (H1N1) infected in MDCK cells
Format: toxicity, cell-based
Settings: dog; read-out: Ratio CC50/IC50

Structure (SMILES) | selectivity ratio
CC1(C)[C@@H]2CC[C@@]1(C(=O)O/N=C(\N)c1ccccn1)C(=O)C2 | 42
CC1(C)[C@@H]2CC[C@@]1(c1nc(-c3ccc(Cl)cc3)no1)C(=O)C2 | 2
CN(C)C/C(N)=N/OC(=O)[C@]12CC[C@H](CC1=O)C2(C)C | 8
CC1(C)[C@@H]2CC[C@@]1(C(=O)O/N=C(\N)c1ccc(Br)cc1)C(=O)C2 | 31
CC(C)/C(N)=N/OC(=O)[C@]12CC[C@H](CC1=O)C2(C)C | 14
CC1(C)[C@@H]2CC[C@@]1(c1nc(Cc3cccc(F)c3)no1)C(=O)C2 | 56
CC1(C)[C@@H]2CC[C@@]1(C(=O)O/N=C(\N)c1ccncc1)C(=O)C2 | 11
CC/C(N)=N/OC(=O)[C@]12CC[C@H](CC1=O)C2(C)C | 5
CC1(C)[C@@H]2CC[C@@]1(c1nc(-c3ccc(F)cc3)no1)C(=O)C2 | 74
CC1(C)[C@@H]2CC[C@@]1(c1nc(Cc3ccc(Br)cc3)no1)C(=O)C2 | > 60
CC1(C)[C@@H]2CC[C@@]1(C(=O)O/N=C(\N)c1cccnc1)C(=O)C2 | > 10
CC1(C)[C@@H]2CC[C@@]1(C(=O)O/N=C(\N)c1ccc(F)cc1)C(=O)C2 | 29
CC1(C)[C@@H]2CC[C@@]1(c1nc(-c3ccncc3)no1)C(=O)C2 | 40
CC1(C)[C@@H]2CC[C@@]1(c1nc(-c3cccc(F)c3)no1)C(=O)C2 | > 231
CC1(C)[C@@H]2CC[C@@]1(C(=O)O/N=C(\N)c1cccc(F)c1)C(=O)C2 | 26
CC1(C)[C@@H]2CC[C@@]1(c1nc(-c3cccnc3)no1)C(=O)C2 | > 79
CC1(C)[C@@H]2CC[C@@]1(c1nc(Cc3ccc(Cl)cc3)no1)C(=O)C2 | > 25
CC1(C)[C@@H]2CC[C@@]1(C(=O)O/N=C(\N)c1ccc(Cl)cc1)C(=O)C2 | 17
CC1(C)[C@@H]2CC[C@@]1(c1nc(-c3ccccc3)no1)C(=O)C2 | 37

Test system: Influenza A virus
Assay: Anti-membranotropic activity in Influenza A virus A/Puerto Rico/8/34 (H1N1) infected in chicken erythrocytes assessed as inhibition of hemagglutinin-driven membrane disruption incubated for 30 mins followed by infection in chicken erythrocytes
Format: functional, organism-based
Settings: Erythrocyte, DDE = dose-dependent effect

Structure (SMILES) | Activity
CC1(C)[C@@H]2CC[C@@]1(c1nc(Cc3cccc(F)c3)no1)C(=O)C2 | Dde
CC1(C)[C@@H]2CC[C@@]1(c1nc(-c3cccnc3)no1)C(=O)C2 | Dde

Test system: not listed separately
Assay: Selectivity index, ratio of CC50 for cytotoxicity against MDCK cells infected with Influenza A virus A/Anhui/1/2013 (H7N9) to IC50 for antiviral activity against Influenza A virus A/Anhui/1/2013 (H7N9) infected in MDCK cells
Format: toxicity, cell-based
Settings: dog; read-out: Ratio CC50/IC50

Structure (SMILES) | selectivity ratio
CC1(C)[C@@H]2CC[C@@]1(C(=O)O/N=C(\N)c1ccccn1)C(=O)C2 | 6
CC1(C)[C@@H]2CC[C@@]1(C(=O)O/N=C(\N)c1ccc(Br)cc1)C(=O)C2 | 118
CC1(C)[C@@H]2CC[C@@]1(c1nc(Cc3cccc(F)c3)no1)C(=O)C2 | 3
CC1(C)[C@@H]2CC[C@@]1(c1nc(-c3ccc(F)cc3)no1)C(=O)C2 | 7
CC1(C)[C@@H]2CC[C@@]1(c1nc(Cc3ccc(Br)cc3)no1)C(=O)C2 | 3
CC1(C)[C@@H]2CC[C@@]1(C(=O)O/N=C(\N)c1cccnc1)C(=O)C2 | 3
CC1(C)[C@@H]2CC[C@@]1(C(=O)O/N=C(\N)c1ccc(F)cc1)C(=O)C2 | 1
CC1(C)[C@@H]2CC[C@@]1(c1nc(-c3ccncc3)no1)C(=O)C2 | 3
CC1(C)[C@@H]2CC[C@@]1(c1nc(-c3cccc(F)c3)no1)C(=O)C2 | 11
CC1(C)[C@@H]2CC[C@@]1(C(=O)O/N=C(\N)c1cccc(F)c1)C(=O)C2 | 4
CC1(C)[C@@H]2CC[C@@]1(c1nc(-c3cccnc3)no1)C(=O)C2 | 1
CC1(C)[C@@H]2CC[C@@]1(c1nc(Cc3ccc(Cl)cc3)no1)C(=O)C2 | 120
CCC(CC)O[C@@H]1C=C(C(=O)O)C[C@H](N)[C@H]1NC(C)=O [OSELTAMIVIR CARBOXYLATE] | > 625
CC1(C)[C@@H]2CC[C@@]1(C(=O)O/N=C(\N)c1ccc(Cl)cc1)C(=O)C2 | 3
CC1(C)[C@@H]2CC[C@@]1(c1nc(-c3ccccc3)no1)C(=O)C2 | 2

Test system: Influenza A virus
Assay: Antiviral activity against Influenza A virus A/Puerto Rico/8/34 (H1N1) infected in MDCK cells assessed as inhibition of viral replication
Format: functional, organism-based
Settings: not given

Structure (SMILES) | pIC50
CC1(C)[C@@H]2CC[C@@]1(C(=O)O/N=C(\N)c1ccccn1)C(=O)C2 | 4.74
CC1(C)[C@@H]2CC[C@@]1(c1nc(-c3ccc(Cl)cc3)no1)C(=O)C2 | 4.48
CN(C)C/C(N)=N/OC(=O)[C@]12CC[C@H](CC1=O)C2(C)C | 4.28
CC1(C)[C@@H]2CC[C@@]1(C(=O)O/N=C(\N)c1ccc(Br)cc1)C(=O)C2 | 4.89
CC(C)/C(N)=N/OC(=O)[C@]12CC[C@H](CC1=O)C2(C)C | 4.30
CC1(C)[C@@H]2CC[C@@]1(c1nc(Cc3cccc(F)c3)no1)C(=O)C2 | 5.15
CC1(C)[C@@H]2CC[C@@]1(C(=O)O/N=C(\N)c1ccncc1)C(=O)C2 | 4.11
CC/C(N)=N/OC(=O)[C@]12CC[C@H](CC1=O)C2(C)C | 3.79
CC1(C)[C@@H]2CC[C@@]1(c1nc(-c3ccc(F)cc3)no1)C(=O)C2 | 5.40
CC1(C)[C@@H]2CC[C@@]1(c1nc(-c3ccccn3)no1)C(=O)C2 | < 3.00
CC1(C)[C@@H]2CC[C@@]1(c1nc(Cc3ccc(Br)cc3)no1)C(=O)C2 | 4.89
CC1(C)[C@@H]2CC[C@@]1(C(=O)O/N=C(\N)c1cccnc1)C(=O)C2 | 3.98
CC1(C)[C@@H]2CC[C@@]1(C(=O)O/N=C(\N)c1ccc(F)cc1)C(=O)C2 | 5.10
CC1(C)[C@@H]2CC[C@@]1(c1nc(-c3ccncc3)no1)C(=O)C2 | 4.60
CC1(C)[C@@H]2CC[C@@]1(c1nc(-c3cccc(F)c3)no1)C(=O)C2 | 5.22
CC1(C)[C@@H]2CC[C@@]1(C(=O)O/N=C(\N)c1cccc(F)c1)C(=O)C2 | 5.22
CC1(C)[C@@H]2CC[C@@]1(c1nc(-c3cccnc3)no1)C(=O)C2 | 4.89
CC1(C)[C@@H]2CC[C@@]1(c1nc(Cc3ccc(Cl)cc3)no1)C(=O)C2 | 4.44
CCC(CC)O[C@@H]1C=C(C(=O)O)C[C@H](N)[C@H]1NC(C)=O [OSELTAMIVIR CARBOXYLATE] | 6.74
CC1(C)[C@@H]2CC[C@@]1(C(=O)O/N=C(\N)c1ccc(Cl)cc1)C(=O)C2 | 4.85
CC1(C)[C@@H]2CC[C@@]1(c1nc(-c3ccccc3)no1)C(=O)C2 | 5.30

Test system: Influenza A virus
Assay: Antiviral activity against Influenza A virus A/Anhui/1/2013 (H7N9) infected in MDCK cells assessed as inhibition of viral replication
Format: functional, organism-based
Settings: not given

Structure (SMILES) | pIC50
CC1(C)[C@@H]2CC[C@@]1(C(=O)O/N=C(\N)c1ccccn1)C(=O)C2 | 3.96
CC1(C)[C@@H]2CC[C@@]1(C(=O)O/N=C(\N)c1ccc(Br)cc1)C(=O)C2 | 5.52
CC1(C)[C@@H]2CC[C@@]1(c1nc(Cc3cccc(F)c3)no1)C(=O)C2 | < 3.98
CC1(C)[C@@H]2CC[C@@]1(c1nc(-c3ccc(F)cc3)no1)C(=O)C2 | 4.52
CC1(C)[C@@H]2CC[C@@]1(c1nc(Cc3ccc(Br)cc3)no1)C(=O)C2 | 3.57
CC1(C)[C@@H]2CC[C@@]1(C(=O)O/N=C(\N)c1cccnc1)C(=O)C2 | < 3.48
CC1(C)[C@@H]2CC[C@@]1(C(=O)O/N=C(\N)c1ccc(F)cc1)C(=O)C2 | < 4.03
CC1(C)[C@@H]2CC[C@@]1(c1nc(-c3ccncc3)no1)C(=O)C2 | < 3.45
CC1(C)[C@@H]2CC[C@@]1(c1nc(-c3cccc(F)c3)no1)C(=O)C2 | 4.03
CC1(C)[C@@H]2CC[C@@]1(C(=O)O/N=C(\N)c1cccc(F)c1)C(=O)C2 | 4.68
CC1(C)[C@@H]2CC[C@@]1(c1nc(-c3cccnc3)no1)C(=O)C2 | < 2.97
CC1(C)[C@@H]2CC[C@@]1(c1nc(Cc3ccc(Cl)cc3)no1)C(=O)C2 | 5.10
CCC(CC)O[C@@H]1C=C(C(=O)O)C[C@H](N)[C@H]1NC(C)=O [OSELTAMIVIR CARBOXYLATE] | 6.80
CC1(C)[C@@H]2CC[C@@]1(C(=O)O/N=C(\N)c1ccc(Cl)cc1)C(=O)C2 | < 4.52
CC1(C)[C@@H]2CC[C@@]1(c1nc(-c3ccccc3)no1)C(=O)C2 | < 3.93
